Data set [1] deals with lung adenocarcinoma (CL1-5). Details: method as in ref 1 (SI). Conditions: CL1-5-inoculated mice, free prodrug; ref 1 (SI); cited from earlier work.
Data set [2] concerns MCF-7. Kind of data set: Cell proliferation assay (CCK-8), MCF-7. The class given is cell-based, human.
Protocol: Cells were seeded at a density of five thousand cells per well in 96-well plates and left to incubate overnight. Triplicate samples of free SN38, free SN38-G, and SN38-G liposomes were added at various dilutions and incubated for 24 h. CCK-8 stock solution was thawed at 37 °C in a water bath, 10 μL was added to each well, and plates were placed in the incubator for up to 4 h before measuring the absorbance at 450 nm using a microplate reader. Inhibition of cell proliferation was determined as 2 ″%ofinhibitioncomparedtocontrol^″=absorbanceat450nm(sample)×100/Absorbanceat450nm(control)
Sequential Esterification, Hydrolysis, Enzymatic Digestion, and Biological Activity Assessment of SN38-G to SN38. Commercial SN38-G was esterified in methanol or ethanol using sulfuric acid (H₂SO₄) and DMSO, following the procedure detailed in the Methods section under Synthesis of amphiphilic SN38-Gmet and SN38-Geth from SN38-G. The formation of the esters was monitored by analytical HPLC. For analysis, 2 µL of the reaction mixture was diluted in 248 µL of HPLC mobile phase, and 2.5 µL was injected with the fluorescence detector set at an excitation/emission wavelength of 375/430 nm. Hydrolysis of SN38-Gmet and SN38-Geth was carried out at 70 °C in 10 mM HEPES buffer, adjusted to pH 8. Samples were taken at 0, 5, 30, and 60 minutes, diluted in HPLC mobile phase (70% methanol, 25 mM citric acid, pH 3), and incubated at 70 °C for 10 minutes before injection. To generate active SN38, SN38-G was enzymatically cleaved by beta-glucuronidase following pH adjustment to 7 with phosphate buffer. The biological activity of the resulting SN38 was evaluated in an in-vitro cytotoxicity assay using human MCF-7 breast cancer cells, in comparison to commercial SN38. Cells were seeded at 5,000 cells per well in 96-well plates and incubated overnight. Triplicate samples of either commercial SN38 or SN38 generated from SN38-G were added at various dilutions and incubated for 24 hours. Afterward, 10 µL of CCK-8 solution (pre-warmed to 37 °C) was added to each well, and the plates were returned to the incubator for up to 4 hours. Absorbance was then measured at 450 nm using a microplate reader. Cell proliferation inhibition was calculated as: % inhibition = [Abs₄₅₀(sample) / Abs₄₅₀(control)] × 100 .
Cytotoxicity Assay in Cancerous and Non -Cancerous Cell Lines. […]
For the cytotoxicity assay cells were seeded at a density of 5,000 cells per well in 96 -well plates and allowed to adhere overnight. […] Absorbance at 450 nm was measured using a microplate reader. Cell viability was calculated as a percentage of untreated control cells. […]
For data set [3], the system named is MCF-7. Nature of the data set: Cellular regeneration of SN38 from SN38-G liposomes, MCF-7. It is filed as cell-based, human. Conditions: 100 μM inhibitor, 2 μM SN38-G liposomes.
Data set [4] concerns MDA-MB-231. Kind of data set: Cellular regeneration of SN38 from SN38-G liposomes, MDA-MB-231. The class given is cell-based. Conditions: 100 μM inhibitor, 2 μM SN38-G liposomes.
Data set [5] has as its system MDA-MB-231. Nature of the data set: Cell proliferation assay (CCK-8), MDA-MB-231. The class given is cell-based. As for the experimental part: Cells were seeded at a density of five thousand cells per well in 96-well plates and left to incubate overnight. […] Inhibition of cell proliferation was determined as 2 ''%[…]^''=absorbanceat450nm(sample)×100/Absorbanceat450nm(control)

Data set [6] is described as follows: physchem. To be noted: for logP at 24 h: pH 6, Log P. Here is the method:
The log P, defined here by partitioning between 1-octanol and pH 6 buffer (Figure c), was measured to determine compound affinity for organic phases such as the lipid bilayer.
(§1) We added SN38, SN38-G, SN38-G^met, and SN38-G^eth in 10 mM MES pH 6 until it reached saturation and stopped dissolving. Saturated solutions were kept under agitation at room temperature for 24 h and centrifuged at 20,000g for 30 min at 24 °C. Analytical HPLC was then used to quantify the supernatants. The partitioning between 1-octanol and water was determined in 500 μL of 10 mM MES at pH 6 and 500 μL of 1-octanol. […] We allowed equilibration between the 2 phases for 24 h at room temperature under constant shaking. After this, the tubes were centrifuged at 20,000g for 30 min at 24 °C, and samples from each phase were analyzed by analytical HPLC. Using 70% methanol mobile phase conveniently dissolves 1-octanol, ensuring precise estimation of drugs’ quantities.

Data set [7] in a line: physchem. To be noted: for solubility at 24 h: pH 6, aqueous buffer, thermodynamic from solid, water solubility; for water solubility: 24 h, pH 6. As for the experimental part: Water solubility tests were conducted in a pH 6 buffer (Figure b) to prevent the hydrolysis of the ester bond.
as §1

The subject of another data set is beta-glucuronidase. Kind of data set: Enzymatic digestion of SN38-G to SN38 by beta-glucuronidase. To be noted: 37 °C. The class given is biochemical.
The nature of data set [8]: Drug stability: retention in liposomes on dialysis in 0.9% NaCl with 10% FBS at 37 °C. It is filed as physicochemical. Conditions: dialysis 0.9% NaCl with 10% FBS, over 15 days. Here is the method: This stability is consistent with the physicochemical properties of SN38-G and its intraliposomal complexation with calcium, which limits membrane permeability.
We diluted SN38-G liposomes at 1 mg/mL of phospholipids in 2 mL of 0.9% NaCl, complemented with 10% FBS, before transferring to dialysis membrane (Visking Tubing, diameter 15.9 mm, molecular weight 12,000–14,000). We ran the dialysis at 37 °C in the dark against 2 L, to which we added 0.02% sodium azide to prevent bacterial growth, under constant stirring. Samples of 2 μL of liposomes were taken at different intervals and diluted in 248 μL of HPLC mobile phase (70% methanol, […], pH 3), lysed for 10 min at 70 °C, and injected (Volume = 2.5 μL) in the C18 reverse phase HPLC system to analyze the total remaining amount of encapsulated SN38-G.

Data set [9] in a line: Alkaline hydrolysis of SN38-G esters back to SN38-G (10 mM HEPES pH 8, 70 °C, HPLC). The class given is physicochemical. To be noted: alkaline conditions (10 mM HEPES pH 8), after 1 h. Here is the method: Accordingly, we formed a loadable amphiphilic SN38-G by esterification in excess alcohol at elevated temperatures using a sulfuric acid (H2SO4) catalyst. Esterification was performed in either methanol or ethanol, resulting in a methylester (SN38-G^met) and an ethylester (SN38-G^eth). Within 12 h, over 95% of SN38-G was esterified to SN38-G^met and SN38-G^eth (Figure a). Both esters are expected to have different levels of amphiphilicity due to their respective ester length, which might influence their loading behavior. We then tested the reversibility of the esterification to regenerate hydrophilic SN38-G through alkaline hydrolysis, which is a crucial step to ensure proper retention after loading. The hydrolysis rates of SN38-G^met and SN38-G^eth under alkaline conditions at 70 °C, which simulates the elevated pH compartment of liposomes during loading, were adequate. After 1 h, 96.1% (±2.6) of SN38-G^met and 95.5% (±2.1) of SN38-G^eth were hydrolyzed back to SN38-G (Figure b). The hydrolysis duration aligns with the typical incubation time between drugs and liposomes during loading. […]
Hydrolysis of SN38-G^met and SN38-G^eth was performed in 10 mM HEPES adjusted to pH 8 to simulate the alkaline internal compartment of the liposomes during drug loading. We monitored the reaction at 70 °C and took samples at 0, 5, 30, and 60 min of incubation time. […]

Data set [10] relates to ovarian cancer model (OVCAR-3). Further details: method as in ref 7 (SI). Conditions: equitoxic dose; ref 7 (SI); cited from earlier work.

pIC50: −log10 of the molar value. Converted amounts (≈) assume the structure as drawn.

“9-aminocamptothecin glucuronide [9AC glucuronide]”: in [1], the mice cured result was “Up to 85%”.

For the compound `CCc1c2c(nc3ccc(OC(=O)N4CCC(N5CCCCC5)CC4)cc13)-c1cc3c(c(=O)n1C2)COC(=O)[C@]3(O)CC` [CPT-11], in the data set on MCF-7 [2] (MCF-7, 24 h, CCK-8), the cytotoxicity entry is “low cytotoxicity”.

Consider `O=C(O)[C@@H](O)[C@H]1OC(=O)[C@H](O)[C@H]1O` [D-saccharic acid 1,4-lactone], for which the “effect on production of SN38 in cells” value in the data set on MCF-7 [3] and with MDA-MB-231 [4] was “effectively suppressed” in each case.

In general, pIC50 refers to −log10 of the IC50, conventionally taken in molar units. Read a high pIC50 as a small IC50. The term logP denotes a log measure of how a compound divides between an organic and an aqueous phase. The low end stands for lower lipophilicity, the high end for higher lipophilicity. One may read the solubility as how much of the substance goes into solution per volume. As for `CCc1c2c(nc3ccc(O)cc13)-c1cc3c(c(=O)n1C2)COC(=O)[C@]3(O)CC` [SN38, 7-ethyl-10-hydroxycamptothecin], the negative logarithm of the IC50 (pIC50) with MDA-MB-231 [5] (Homo sapiens, MDA-MB-231, 24 h, CCK-8) was 7.62; with MCF-7 [2] (Homo sapiens, MCF7, MCF-7, 24 h, CCK-8), 8.24. In the data set on MCF-7 [2] (SN38 made by esterification, hydrolysis and beta-glucuronidase digestion of SN38-G, MCF-7, 24 h), the “in vitro cytotoxicity of SN38 regenerated from reformed SN38-G” value is “comparable to that of a commercial SN38 standard”. The “higher affinity for the organic phase” value in the data set “physchem [6]” (1-octanol vs pH 6 buffer) stood at 53 fold. The compound also gave a logP at 24 h in “physchem [6]” of 1.73. In the data set “physchem [7]”, this compound had a solubility at 24 h of approximately 7.45 µg/mL (≈ 0.019 mM).

As for `CCc1c2c(nc3ccc(O[C@@H]4O[C@H](C(=O)O)[C@@H](O)[C@H](O)[C@H]4O)cc13)-c1cc3c(c(=O)n1C2)COC(=O)[C@]3(O)CC` [SN38-G, SN38 glucuronide], the “reduction of toxicity versus SN38” value in the data set with MDA-MB-231 [5] (MDA-MB-231) is given as 550.5 fold. The “reduction of toxicity versus SN38” value in the data set on MCF-7 [2] (MCF-7) came out at 728.5 fold. Moreover, the “higher affinities for the aqueous phase” value in “physchem [6]” (1-octanol vs pH 6 buffer) is “over 775 fold”. This compound also displayed a logP at 24 h in the data set “physchem [6]” of -2.89. Also, in the data set “physchem [7]”, the water solubility came out at 62800 µg/mL (≈ 110 mM) and the solubility at 24 h is approximately 59500 µg/mL (≈ 105 mM). In the data set with beta-glucuronidase, the “cleavage by beta-glucuronidase to SN38” value was “rapidly cleaved”. The retention within liposomes result in data set [8] was “excellent retention”.

As for `CCOC(=O)[C@H]1O[C@@H](Oc2ccc3nc4c(c(CC)c3c2)Cn2c-4cc3c(c2=O)COC(=O)[C@]3(O)CC)[C@H](O)[C@@H](O)[C@@H]1O` [SN38-G^eth], the “hydrolyzed back to SN38-G” value in [9] came to 95.5%. Besides, in the data set “physchem [6]”, the logP at 24 h is 0.66. In addition, in the data set “physchem [7]”, the water solubility was determined as 1500 µg/mL (≈ 2.51 mM) and the solubility at 24 h was approximately 1500 µg/mL (≈ 2.51 mM). The retention within liposomes entry in data set [8] was “rapid clearance”.

As to `CCc1c2c(nc3ccc(O[C@@H]4O[C@H](C(=O)OC)[C@@H](O)[C@H](O)[C@H]4O)cc13)-c1cc3c(c(=O)n1C2)COC(=O)[C@]3(O)CC` [SN38-G^met], the “hydrolyzed back to SN38-G” value in [9] is recorded as 96.1%. Moreover, the logP at 24 h in “physchem [6]” was determined as 0.07. In the data set “physchem [7]”, this compound gave a water solubility of 3860 µg/mL (≈ 6.63 mM) and a solubility at 24 h of approximately 3860 µg/mL (≈ 6.63 mM). Moreover, the retention within liposomes entry in [8] was “rapid clearance”.

As to `COc1cccc2c1C(=O)c1c(O)c3c(c(O)c1C2=O)C[C@@](O)(C(=O)CO)C[C@@H]3O[C@H]1C[C@H](N)[C@H](O)[C@H](C)O1` [doxorubicin], the tumor inhibition in [10] is recorded as 56%.

The values are drawn from paper PMC12284848, “Safe and Efficient Intracellular Release of SN38 via Lysosomal-Responsive SN38‑G Loaded Liposomes” (ACS Applied Bio Materials, 2025).
